Assay results published in publication PMC7185459 (Antiviral Research, 2015).
Like-named read-outs stand apart in the source and are kept apart here.

Columns and labels:
[1] = tested on: hRSV strain Long; settings: HEp-2 cells
[2] = tested on: hRSV strain Long; assay: microbe, parasite or virus in culture; settings: human respiratory syncytial virus, HEp-2, 96 h
[3] = tested on: SRI 29365-resistant mutant hRSV (G protein A63V); type: cell-based, Human respiratory syncytial virus
[4] = tested on: human metapneumovirus; assay: In vitro CPE assay, human metapneumovirus; type: cell-based
[5] = tested on: Nipah virus; type: cell-based
[6] = tested on: Venezuelan equine encephalitis virus; type: cell-based
[7] = tested on: Dengue 2 virus; assay: In vitro CPE assay, Dengue 2 virus; type: cell-based
[8] = tested on: human influenza virus; assay: In vitro CPE assay, human influenza virus; type: cell-based
[9] = tested on: SARS CoV; type: cell-based
[10] = tested on: RSV/A/Tracy; type: in vivo; settings: cotton rat, intraperitoneal at -1, +6, +24 h, vs vehicle, day +4
[11] = tested on: hRSV strain Long; settings: A549 cells
[12] = physchem
[13] = physchem; remark: listed apart in the source
[14] = tested on: hRSV strain Long; assay: microbe, parasite or virus in culture; settings: human respiratory syncytial virus, A549

Structure (SMILES)	SI (CC50/EC50) [1]	EC50 [2] [nM]	resistance of mutant virus relative to wt virus EC50 [3] [fold]	reduction in CPE due to antiviral activity [4]	reduction in CPE due to antiviral activity [5]	reduction in CPE due to antiviral activity [6]	reduction in CPE due to antiviral activity [7]	reduction in CPE due to antiviral activity [8]	reduction in CPE due to antiviral activity [9]	body weight [10]	lung lobe weight [10]	SI (CC50/EC50) ([1]; listed as 2)	SI (CC50/EC50) [11]	solubility [12] [µM]	half-life [13] [h]	EC50 [14] [nM]
c1csc(-c2nn3c(Cn4cnc5ccccc54)nnc3s2)c1 [Compound 1, 1-[6-(2-thienyl)[1,2,4]triazolo[3,4-b][1,3,4]thiadiazol-3-yl]methyl-1H-benzimidazole]	391	230														
c1coc(-c2nn3c(Cn4cnc5ccccc54)nnc3s2)c1 [SRI 29365, 1-[6-(2-furyl)[1,2,4]triazolo[3,4-b][1,3,4]thiadiazol-3-yl]methyl-1H-benzimidazole]			> 100	No significant reduction in CPE	No significant reduction in CPE	No significant reduction in CPE	No significant reduction in CPE	No significant reduction in CPE	No significant reduction in CPE	no significant difference	no significant difference	83	> 83	< 400	> 60	1200
